Assay results reported in publication PMC10997755, “Discovery of a small-molecule inhibitor that traps Polθ on DNA and synergizes with PARP inhibitors” (Nature Communications, 2024).
“And” between values parts separate entries of the source, which are not always exact repeats. Identical values can stand only once.

Experiments:
Format in all cases: biochemical
Polθ-pol:DNA/DNA complex [1] = molecular target: T1, Polθ-pol:DNA/DNA complex (Homo sapiens, UniProt O75417); experiment: KpnI endonuclease protection assay; details: for i (%), normalized to 100%, ave(%) / i (%), replicates: 14 nt i; for i+1 (%) normalized to 100%, ave(%) / i+1 (%), replicates: 15 nt i+1
T1 construct: purified recombinant human Polθ-pol (comprising amino acid residues 1792–2590); made in house
T1 sequence (O75417 1792-2590): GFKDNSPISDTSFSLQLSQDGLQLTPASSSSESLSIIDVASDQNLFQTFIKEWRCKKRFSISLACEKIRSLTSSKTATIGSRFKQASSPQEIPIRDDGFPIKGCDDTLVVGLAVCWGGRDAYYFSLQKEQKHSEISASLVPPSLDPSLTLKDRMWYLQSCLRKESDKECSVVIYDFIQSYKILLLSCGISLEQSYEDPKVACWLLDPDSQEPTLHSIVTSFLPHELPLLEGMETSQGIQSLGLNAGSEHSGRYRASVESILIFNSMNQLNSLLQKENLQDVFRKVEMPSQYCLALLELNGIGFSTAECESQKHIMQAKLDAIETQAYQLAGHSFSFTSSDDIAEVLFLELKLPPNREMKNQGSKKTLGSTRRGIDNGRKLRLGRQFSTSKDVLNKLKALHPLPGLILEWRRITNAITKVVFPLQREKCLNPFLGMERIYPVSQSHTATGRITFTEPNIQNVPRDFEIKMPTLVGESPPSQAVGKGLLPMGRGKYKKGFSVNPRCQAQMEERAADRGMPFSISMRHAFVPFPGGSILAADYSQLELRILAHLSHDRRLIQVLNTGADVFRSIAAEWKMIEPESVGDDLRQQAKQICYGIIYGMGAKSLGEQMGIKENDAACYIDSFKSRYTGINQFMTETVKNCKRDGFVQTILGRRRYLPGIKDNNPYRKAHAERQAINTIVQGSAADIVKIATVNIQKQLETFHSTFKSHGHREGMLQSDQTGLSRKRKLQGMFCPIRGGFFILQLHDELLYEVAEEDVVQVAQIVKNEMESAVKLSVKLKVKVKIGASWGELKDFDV
Procedure: (§1) EcoRI and KpnI endonucleases assay: 25 nM 5’-^32P radiolabeled primer-template DNA Sc15-EcoRI (5’-^32P LM3-EcoRI/LM4-EcoRI) or Sc19-KpnI (5’-^32P LM11-Kpn/LM12-Kpn) in reaction buffer (25 mM Tris-HCl pH 7.5, 10 mM MgCl2, 10% glycerol, 0.1 mg/mL BSA, 0,01% igepal, 1 mM DTT) were incubated in the presence or in the absence of 50 nM Polθ-pol, 100 μM ddCTP, and 10 μM inhibitors, as indicated, for 5 min at room temperature. Next, 0.08 U/μL EcoRI or KpnI together with 500 nM “trapping” DNA Sc14 (RP559/RP702) were added and incubated for further 0–40 min at 30 °C as indicated. 10 nM PolθΔcen and FL-Polθ and 25 nM Sc15-EcoRI and Sc19-Kpn were probed with 0.04 U/μL EcoRI or KpnI (both from New England Biolabs) using the same conditions. Reactions were stopped by addition of formamide loading buffer with 50 mM EDTA, resolved in denaturing 20% urea PAAG and analyzed using Typhoon PhosphorImager (GE Amersham). Quantification was done in ImageQuant TL software. All quantified experiments were performed in triplicates and plotted as mean with ± s.d using GraphPad Prism 9 software.

Polθ-pol:DNA/DNA complex [2] = molecular target: T1, Polθ-pol:DNA/DNA complex; experiment: EcoRI endonuclease protection assay; details: for EcoRI cleavage %, ave / EcoRI cleavage %, replicates #1-#3: Eco+pol+ddC+RTx compound; for cleavage normalized to 100%, i: 14 nt i; for cleavage normalized to 100%, i+1: 15 nt i+1; for i (%) (14 nt), replicates #1-#3 / i (%), normalized to 100%, ave(%) / i+1 (%) (15 nt), replicates #1-#3 / i+1 (%) normalized to 100%, ave(%): pol+ddC+compound;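 on i+1 (%) (15 nt), replicates #1-#3: i+1 is one-nucleotide extended DNA within post-catalytic complexes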
Procedure: as §1

Polθ-pol = molecular target: T2, Polθ-pol (Homo sapiens, UniProt O75417); experiment: MMEJ in vitro assay
T2 construct: purified recombinant human Polθ-pol (comprising amino acid residues 1792–2590); made in house
T2 sequence (O75417 1792-2590): T1 sequence (O75417 1792-2590)
Procedure: For the MMEJ in vitro assay in the presence of RTx-161, 10 nM Polθ-pol was first mixed with DMSO (3% final concentration) or RTx-161 at indicated final concentrations 4–500 nM in reaction buffer (25 mM Tris-HCl pH 7.5, 10 mM MgCl2, 10% glycerol, 0.1 mg/mL BSA, 0,01% IGEPAL CA-630, 1 mM DTT) followed by incubation for 5 min at room temperature. MMEJ reactions were started by the addition of 50 μM dNTP and 25 nM 5’-^32P radiolabeled pssDNA (RP343/^32P-RP344), incubated for 15 min at 37 °C, stopped by the addition of denaturing formamide loading buffer with 50 mM EDTA, resolved in denaturing 20% PAGE and analyzed using Typhoon PhosphorImager (GE Amersham). Quantification was performed using ImageQuant TL software. For the MMEJ in vitro assay in the presence of MC160385, 0.2–10 μM MC160385, 10 nM Polθ-pol, 60 nM 5’-^32P radiolabeled pssDNA and 100 μM dNTPs were used. The reaction was performed as above and stopped by the Proteinase K treatment in 50 mM EDTA and 0.5% SDS. The products were resolved in native 12% PAGE at room temp and analyzed as above.

SMILES: CN1CCN(c2cc(C(F)(F)F)cc(C(F)(F)F)c2OC(=O)N(C)c2ccc(F)cc2)C1=O [RTx-152]
- KpnI cleavage %, ave (Polθ-pol:DNA/DNA complex [1]; Kpn+pol+ddC+RTx152, 2.5min): 0.358%
- KpnI cleavage %, replicates (Polθ-pol:DNA/DNA complex [1]; Kpn+pol+ddC+RTx152, 2.5min): 0.0% and 0.447% and 0.6%
- KpnI cleavage %, ave (Polθ-pol:DNA/DNA complex [1]; Kpn+pol+ddC+RTx152, 5min): 0.665%
- KpnI cleavage %, replicates (Polθ-pol:DNA/DNA complex [1]; Kpn+pol+ddC+RTx152, 5min): 0.321% and 0.8% and 0.9%
- KpnI cleavage %, ave (Polθ-pol:DNA/DNA complex [1]; Kpn+pol+ddC+RTx152, 10min): 2.1%
- KpnI cleavage %, replicates (Polθ-pol:DNA/DNA complex [1]; Kpn+pol+ddC+RTx152, 10min): 1.8% and 2.3% and 2.0%
- trapping of post-catalytic complexes, different sequence context (Polθ-pol:DNA/DNA complex [1]; KpnI): identical trapping
- i (%), normalized to 100%, ave(%) (Polθ-pol:DNA/DNA complex [1]; KpnI, pol+ddC+152, 2.5 min): 100.0%
- i (%), replicates (Polθ-pol:DNA/DNA complex [1]; KpnI, pol+ddC+152, 2.5 min): 35.4% and 37.2% and 33.9%
- i+1 (%) normalized to 100%, ave(%) (Polθ-pol:DNA/DNA complex [1]; KpnI, pol+ddC+152, 2.5 min): 100.0%
- i+1 (%), replicates (Polθ-pol:DNA/DNA complex [1]; KpnI, pol+ddC+152, 2.5 min): 53.1% and 50.1% and 54.1%
- i (%), normalized to 100%, ave(%) (Polθ-pol:DNA/DNA complex [1]; KpnI, pol+ddC+152, 5 min): 85.8%
- i (%), replicates (Polθ-pol:DNA/DNA complex [1]; KpnI, pol+ddC+152, 5 min): 30.7% and 32.1% and 28.6%
- i+1 (%) normalized to 100%, ave(%) (Polθ-pol:DNA/DNA complex [1]; KpnI, pol+ddC+152, 5 min): 107.9%
- i+1 (%), replicates (Polθ-pol:DNA/DNA complex [1]; KpnI, pol+ddC+152, 5 min): 57.1% and 52.5% and 60.1%
- i (%), normalized to 100%, ave(%) (Polθ-pol:DNA/DNA complex [1]; KpnI, pol+ddC+152, 10 min): 63.7%
- i (%), replicates (Polθ-pol:DNA/DNA complex [1]; KpnI, pol+ddC+152, 10 min): 21.4% and 24.5% and 21.9%
- i+1 (%) normalized to 100%, ave(%) (Polθ-pol:DNA/DNA complex [1]; KpnI, pol+ddC+152, 10 min): 120.8%
- i+1 (%), replicates (Polθ-pol:DNA/DNA complex [1]; KpnI, pol+ddC+152, 10 min): 62.6% and 62.1% and 65.2%
- suppression of EcoRI cleavage (Polθ-pol:DNA/DNA complex [2]; 10 μM inhibitor, ddCTP): strong suppression of endonuclease cleavage
- time Polθ-pol is trapped on DNA/DNA (EcoRI cleavage suppressed) (Polθ-pol:DNA/DNA complex [2]; 10 μM inhibitor, ddCTP): > 40 min
- EcoRI cleavage %, ave (Polθ-pol:DNA/DNA complex [2]; 2.5min): 2.1%
- EcoRI cleavage %, replicates #1-#3 (Polθ-pol:DNA/DNA complex [2]; 2.5min): 3.0% and 2.0% and 1.2%
- EcoRI cleavage %, ave (Polθ-pol:DNA/DNA complex [2]; 5min): 2.5%
- EcoRI cleavage %, replicates #1-#3 (Polθ-pol:DNA/DNA complex [2]; 5min): 3.0% (2×) and 1.4%
- EcoRI cleavage %, ave (Polθ-pol:DNA/DNA complex [2]; 10min): 4.6%
- EcoRI cleavage %, replicates #1-#3 (Polθ-pol:DNA/DNA complex [2]; 10min): 5.0% (2×) and 3.7%
- EcoRI cleavage % (Polθ-pol:DNA/DNA complex [2]; pol+ddC+152, 0 min): 0.0%
- EcoRI cleavage % (Polθ-pol:DNA/DNA complex [2]; pol+ddC+152, 5 min): 3.0%
- cleavage normalized to 100%, i (Polθ-pol:DNA/DNA complex [2]; pol+ddC+152, 5 min): 100.0%
- cleavage normalized to 100%, i+1 (Polθ-pol:DNA/DNA complex [2]; pol+ddC+152, 5 min): 100.0%
- EcoRI cleavage % (Polθ-pol:DNA/DNA complex [2]; pol+ddC+152, 10 min): 3.7%
- cleavage normalized to 100%, i (Polθ-pol:DNA/DNA complex [2]; pol+ddC+152, 10 min): 75.0%
- cleavage normalized to 100%, i+1 (Polθ-pol:DNA/DNA complex [2]; pol+ddC+152, 10 min): 110.0%
- EcoRI cleavage % (Polθ-pol:DNA/DNA complex [2]; pol+ddC+152, 20 min): 5.7%
- cleavage normalized to 100%, i (Polθ-pol:DNA/DNA complex [2]; pol+ddC+152, 20 min): 48.0%
- cleavage normalized to 100%, i+1 (Polθ-pol:DNA/DNA complex [2]; pol+ddC+152, 20 min): 119.0%
- EcoRI cleavage % (Polθ-pol:DNA/DNA complex [2]; pol+ddC+152, 40 min): 9.5%
- cleavage normalized to 100%, i (Polθ-pol:DNA/DNA complex [2]; pol+ddC+152, 40 min): 25.0%
- cleavage normalized to 100%, i+1 (Polθ-pol:DNA/DNA complex [2]; pol+ddC+152, 40 min): 124.0%
- i (%) (14 nt), replicates #1-#3 (Polθ-pol:DNA/DNA complex [2]; 2.5min): 25.8% and 27.6% and 28.2%
- i (%), normalized to 100%, ave(%) (Polθ-pol:DNA/DNA complex [2]; 2.5min): 100.0%
- i+1 (%) (15 nt), replicates #1-#3 (Polθ-pol:DNA/DNA complex [2]; 2.5min): 59.7% and 57.2% and 58.7%
- i+1 (%) normalized to 100%, ave(%) (Polθ-pol:DNA/DNA complex [2]; 2.5min): 100.0%
- i (%) (14 nt), replicates #1-#3 (Polθ-pol:DNA/DNA complex [2]; 5min): 22.2% and 22.6% and 25.1%
- i (%), normalized to 100%, ave(%) (Polθ-pol:DNA/DNA complex [2]; 5min): 85.6%
- i+1 (%) (15 nt), replicates #1-#3 (Polθ-pol:DNA/DNA complex [2]; 5min): 63.6% and 59.1% and 62.1%
- i+1 (%) normalized to 100%, ave(%) (Polθ-pol:DNA/DNA complex [2]; 5min): 105.2%
- i (%) (14 nt), replicates #1-#3 (Polθ-pol:DNA/DNA complex [2]; 10min): 15.4% and 16.3% and 17.9%
- i (%), normalized to 100%, ave(%) (Polθ-pol:DNA/DNA complex [2]; 10min): 60.8%
- i+1 (%) (15 nt), replicates #1-#3 (Polθ-pol:DNA/DNA complex [2]; 10min): 68.8% and 63.1% and 66.7%
- i+1 (%) normalized to 100%, ave(%) (Polθ-pol:DNA/DNA complex [2]; 10min): 113.1%

SMILES: CN(C(=O)Oc1ccc(C(F)(F)F)cc1C(F)(F)F)c1ccc(F)cc1 [MC160385]
- inhibition of Polθ-pol MMEJ activity in vitro (Polθ-pol): substantial Polθ-pol MMEJ inhibition
